structure (smiles),measurement,setting,value
CC1(C)C[C@@H]1C(N)=O,solubility (mole fraction),"in chloroform, 286.26 K",0.0357
same,solubility (mole fraction),"in chloroform, 293.65 K",0.0395
same,solubility (mole fraction),"in chloroform, 296.64 K",0.0429
same,solubility (mole fraction),"in chloroform, 300.25 K",0.0484
same,solubility (mole fraction),"in chloroform, 303.47 K",0.0529
same,solubility (mole fraction),"in chloroform, 308.04 K",0.0596
same,solubility (mole fraction),"in chloroform, 310.96 K",0.0665
same,solubility (mole fraction),"in chloroform, 314.18 K",0.0699
same,solubility (mole fraction),"in chloroform, 317.45 K",0.0789
same,solubility (mole fraction),"in chloroform, 321.27 K",0.0902
same,solubility (mole fraction),"in dichloromethane, 288.72 K",0.0152
same,solubility (mole fraction),"in dichloromethane, 292.45 K",0.0177
same,solubility (mole fraction),"in dichloromethane, 296.11 K",0.0205
same,solubility (mole fraction),"in dichloromethane, 298.74 K",0.0233
same,solubility (mole fraction),"in dichloromethane, 300.83 K",0.0248
same,solubility (mole fraction),"in dichloromethane, 302.2 K",0.0268
same,solubility (mole fraction),"in dichloromethane, 304.6 K",0.0301
same,solubility (mole fraction),"in dichloromethane, 306.27 K",0.0321
same,solubility (mole fraction),"in dichloromethane, 309.29 K",0.0367
same,solubility (mole fraction),"in ethanol, 290.04 K",0.089
same,solubility (mole fraction),"in ethanol, 293.28 K",0.0945
same,solubility (mole fraction),"in ethanol, 296.81 K",0.101
same,solubility (mole fraction),"in ethanol, 299.25 K",0.107
same,solubility (mole fraction),"in ethanol, 302.71 K",0.116
same,solubility (mole fraction),"in ethanol, 306.04 K",0.123
same,solubility (mole fraction),"in ethanol, 309.67 K",0.134
same,solubility (mole fraction),"in ethanol, 313.53 K",0.148
same,solubility (mole fraction),"in ethanol, 318.09 K",0.163
same,solubility (mole fraction),"in ethyl acetate, 288.96 K",0.0169
same,solubility (mole fraction),"in ethyl acetate, 290 K",0.0205
same,solubility (mole fraction),"in ethyl acetate, 294.53 K",0.0279
same,solubility (mole fraction),"in ethyl acetate, 301.16 K",0.0357
same,solubility (mole fraction),"in ethyl acetate, 305.88 K",0.0409
same,solubility (mole fraction),"in ethyl acetate, 311 K",0.0483
same,solubility (mole fraction),"in ethyl acetate, 316.3 K",0.0557
same,solubility (mole fraction),"in ethyl acetate, 323.65 K",0.0787
same,solubility (mole fraction),"in ethyl acetate, 328.41 K",0.0912
same,solubility (mole fraction),"in toluene, 288.7 K",0.00221
same,solubility (mole fraction),"in toluene, 302.9 K",0.004
same,solubility (mole fraction),"in toluene, 311.23 K",0.00599
same,solubility (mole fraction),"in toluene, 318.11 K",0.00858
same,solubility (mole fraction),"in toluene, 324.07 K",0.011
same,solubility (mole fraction),"in toluene, 328.47 K",0.0137
same,solubility (mole fraction),"in toluene, 332.43 K",0.016
same,solubility (mole fraction),"in toluene, 338.07 K",0.0219
same,solubility (mole fraction),"in toluene, 342.25 K",0.0259
same,solubility (mole fraction),"in toluene, 348.06 K",0.035
same,solubility (mole fraction),"in water, 294.8 K",0.00374
same,solubility (mole fraction),"in water, 308.15 K",0.00499
same,solubility (mole fraction),"in water, 314.67 K",0.00583
same,solubility (mole fraction),"in water, 327.39 K",0.00716
same,solubility (mole fraction),"in water, 331.7 K",0.00917
same,solubility (mole fraction),"in water, 336.08 K",0.0115
same,solubility (mole fraction),"in water, 340.86 K",0.0146
same,solubility (mole fraction),"in water, 345.84 K",0.0177
same,solubility (mole fraction),"in water, 353.93 K",0.026
